Measured values published in patent US10377774B2 (JINAN UNIVERSITY, priority 2013, dated 2019).
Like-named read-outs stand apart in the source and are kept apart here. Marks after values point to notes of the source that are not given here.

Assays:
[1] = system: HL-60 xenografts; test: HL-60 xenografts in nude mice; assay type: in vivo; details: HL-60 xenograft nude mice; for Anti-tumor rate (%) / Body weight (g) Post-dose / Tumor weight: 1 mg/kg; for Body weight (g) Pre-dose: before dosing
Procedure, shortened: (§1)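 Female BALB/nu/nu mice received 1×10^7 cells subcutaneously and were randomized at 70–100 mm^3, six per group. Compounds were given at 1 mg/kg i.p. every two days for 8 doses, with saline as control. Tumor volume was calculated as V=½(ab^2), and body weight was monitored.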

[2] = system: human melanoma cell line A375; test: MTT cell growth inhibition, A375; assay type: cell-based; details: A375, MTT assay, 72 h, read-out: IC50, growth of tumor cell line
From the text: (§5) Experimental method: Cell lines (human non-small-cell lung cancer cell line A549, human colon cancer cell line LOVO, human nasopharyngeal carcinoma cell line CNE-2, human liver cancer cell line HepG2, human cervical carcinoma cell line Hela, human breast cancer cell lines MCF-7 and MDA-MB-231, human gastric carcinoma cell line NCI-N87, human prostatic cancer cell lines PC-3 and DU145, human leukemia cell line K562, human melanoma cell line A375, human neuroblastoma cell line SH-SY5H, human promyelocytic leukemia cell line HL-60, 5-FU-resistant human hepatocellular carcinoma cell line BEL-7402/5-Fu, doxorubicin-resistant hepatocellular carcinoma cell line HepG2/ADM, doxorubicin-resistant human breast cancer cell lines MCF-7/ADR) at logarithmic phase were resuspended in RPMI 1640 medium (containing 10% fetal bovine serum, 100 U/mL penicillin-streptomycin). Then, 100 μL of cells (cell concentration was 5×10^5/mL) were seeded into 96 wells plate. After 24 h incubation at 37° C. with 5% CO2, tested compounds were added (the control group without compound) for an additional 72 h incubation. After that, 30 μL of MTT [3-(4,5-Dimethylthiazol-2-yl)-2,5-diphenyltetrazolium bromide] solution (5 mg/mL) was added into each well and incubated for another 4 h at 37° C. and then the formazan crystals were solubilized with 100 μL DMSO. Finally, absorbance of each well was determined at 570 nm by a microplate reader (Thermo).
(§6) The concentration required to inhibit cell growth by 50% (IC50) was calculated from survival curves.

[3] = system: HepG2 xenografts; test: HepG2 xenografts in nude mice; assay type: in vivo; details: HepG2 xenograft nude mice; for Body weight (g) Pre-dose: before dosing
Procedure, shortened: as §1

[4] = system: human liver cancer cell line HepG2; test: MTT cell growth inhibition, HepG2; assay type: cell-based; details: HepG2, MTT assay, 72 h, read-out: IC50, growth of tumor cell line
From the text: as §5, §6

[5] = system: human normal liver cells LO2; test: MTT cytotoxicity on normal cells, LO2; details: read-out: IC50, cytotoxicity on normal cell line; LO2, MTT assay
Procedure: (§7) Then, 100 μL of cells (cell concentration was 5×10^5/mL) were seeded into 96 wells plate. After 24 h incubation at 37° C. with 5% CO2, tested compounds were added (the control group without compound) for an additional 72 h incubation. After that, 30 μL of MTT [3-(4,5-Dimethylthiazol-2-yl)-2,5-diphenyltetrazolium bromide] solution (5 mg/mL) was added into each well and incubated for another 4 h at 37° C. and then the formazan crystals were solubilized with 100 μL DMSO. Finally, absorbance of each well was determined at 570 nm by a microplate reader (Thermo).
(§8) The standard curve was drew with compound concentrations as the abscissa and cell growth inhibition rates as the ordinate. The concentration required to inhibit cell growth by 50% (IC50) was calculated from survival curves.
(§9) Experimental method: In vitro cytotoxicities of vinca alkaloids, hydrazinolyzed vinca alkaloids and vinca alkaloid dipeptide derivatives on human normal liver cells LO2 and human umbilical vein endothelial cells HUVEC were detected according to the method of Example 2.

[6] = system: doxorubicin-resistant hepatocellular carcinoma cell line HepG2/ADM; test: MTT cell growth inhibition, HepG2/ADM; assay type: cell-based, human; details: MTT assay, 72 h, read-out: IC50, growth of tumor cell line
[7] = system: human leukemia cell line K562; test: MTT cell growth inhibition, K562; assay type: cell-based; details: K562, MTT assay, 72 h, read-out: IC50, growth of tumor cell line
[8] = system: Kunming mice; test: Acute toxicity test; assay type: in vivo; details: injected intraperitoneally
Procedure: (§2) Experimental method: Kunming mice were purchased from Guangdong Medical Experimental Animal Center, weighing 18-22 g, then randomly divided into several groups with 10 mice in each group. Different concentrations of VLB and vinca alkaloid dipeptide derivatives were injected intraperitoneally. Finally, the median lethal dose (LD50) was calculated according to the surviving animals.
(§3) LD50 was measured using the following formula:
(§4) LD50 (mg/kg)=The median lethal dose/body weight

[9] = system: human promyelocytic leukemia cell line HL-60; test: MTT cell growth inhibition, HL-60; assay type: cell-based; details: HL-60, MTT assay, 72 h, read-out: IC50, growth of tumor cell line
[10] = system: human prostatic cancer cell line PC-3; test: MTT cell growth inhibition, PC-3; assay type: cell-based; details: PC-3, MTT assay, 72 h; read-out: IC50, growth of tumor cell line
[11] = system: 5-FU-resistant human hepatocellular carcinoma cell line BEL-7402/5-Fu; test: MTT cell growth inhibition, BEL-7402/5-Fu; assay type: cell-based; details: MTT assay, 72 h, read-out: IC50, growth of tumor cell line
From the text: as §5, §6

[12] = system: human prostatic cancer cell line DU145; test: MTT cell growth inhibition, DU-145; assay type: cell-based; details: DU-145, MTT assay, 72 h, read-out: IC50, growth of tumor cell line
From the text: as §5, §6

[13] = system: K562 xenografts; test: K562 xenografts in nude mice; assay type: in vivo; details: K562 xenograft nude mice; for Anti-tumor rate (%) / Body weight (g) Post-dose / Tumor weight: 1 mg/kg; for Body weight (g) Pre-dose: before dosing
Procedure, shortened: as §1

[14] = system: human non-small-cell lung cancer cell line A549; test: MTT cell growth inhibition, A549; assay type: cell-based; details: A549, MTT assay, 72 h, read-out: IC50, growth of tumor cell line
From the text: as §5, §6

[15] = system: LOVO xenografts; test: LOVO xenografts in nude mice; assay type: in vivo; details: LOVO xenograft nude mice; for Anti-tumor rate (%) / Body weight (g) Post-dose / Tumor weight: 1 mg/kg; for Body weight (g) Pre-dose: before dosing
Procedure, shortened: as §1

[16] = system: human cervical carcinoma cell line Hela; test: MTT cell growth inhibition, Hela; assay type: cell-based; details: MTT assay, 72 h, read-out: IC50, growth of tumor cell line
From the text: as §5, §6

[17] = system: human breast cancer cell line MCF-7; test: MTT cell growth inhibition, MCF-7; assay type: cell-based; details: MCF-7, MTT assay, 72 h, read-out: IC50, growth of tumor cell line
From the text: as §5, §6

[18] = system: human gastric carcinoma cell line NCI-N87; test: MTT cell growth inhibition, NCI-N87; assay type: cell-based; details: NCI-N87, MTT assay, 72 h, read-out: IC50, growth of tumor cell line
From the text: as §5, §6

[19] = system: human umbilical vein endothelial cells HUVEC; test: MTT cytotoxicity on normal cells, HUVEC; details: read-out: IC50, cytotoxicity on normal cell line; HUVEC, MTT assay
Procedure: as §7, §8, §9

[20] = system: MDA-MB-231 xenografts; test: MDA-MB-231 xenografts in nude mice; assay type: in vivo, BALB/nu/nu mice; details: MDA-MB-231 xenograft nude mice; for Anti-tumor rate (%) / Body weight (g) Post-dose / Tumor weight: 1 mg/kg i.p. every two days, 8 administrations; for Body weight (g) Pre-dose: before dosing
Procedure, shortened: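 Female BALB/nu/nu mice bearing subcutaneous MDA-MB-231 tumours (1×10^7 cells; 70–100 mm^3 at randomisation), six per group. Compounds given at 1 mg/kg i.p. every two days for 8 doses versus saline. Tumour volume (V=½ab^2) and body weight tracked.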

[21] = system: human breast cancer cell line MDA-MB-231; test: MTT cell growth inhibition, MDA-MB-231; assay type: cell-based; details: MDA-MB-231, MTT assay, 72 h, read-out: IC50, growth of tumor cell line
From the text: as §5, §6

[22] = system: human neuroblastoma cell line SH-SY5H; test: MTT cell growth inhibition, SH-SY5H; assay type: cell-based; details: MTT assay, 72 h, read-out: IC50, growth of tumor cell line
[23] = system: human nasopharyngeal carcinoma cell line CNE-2; test: MTT cell growth inhibition, CNE-2; assay type: cell-based; details: CNE-2, MTT assay, 72 h, read-out: IC50, growth of tumor cell line
From the text: as §5, §6

[24] = system: doxorubicin-resistant human breast cancer cell lines MCF-7/ADR; test: MTT cell growth inhibition, MCF-7/ADR; assay type: cell-based; details: MTT assay, 72 h, read-out: IC50, growth of tumor cell line
From the text: as §5, §6

[25] = system: human colon cancer cell line LOVO; test: MTT cell growth inhibition, LOVO; assay type: cell-based; details: LOVO (FAPα positive), MTT assay, 72 h, read-out: IC50, growth of tumor cell line
[26] = MTT cytotoxicity on normal cells, LO2; details: human, LO2 cells (human normal liver cells)
Procedure: as §7, §8, §9

[27] = Acute toxicity test; assay type: in vivo; details: mouse, in vivo, ip; Kunming mice, injected intraperitoneally; read-out: LD50 (median lethal dose)
Procedure: as §2, §3, §4

[28] = MTT cytotoxicity on normal cells, HUVEC; details: human, HUVEC (human umbilical vein endothelial cells)
Procedure: as §7, §8, §9

SMILES: CCC1(O)CC2CN(CCc3c([nH]c4ccccc34)C(C(=O)OC)(c3cc4c(cc3OC)N(C=O)C3C(O)(C(=O)NNC(=O)C5CCCN5C(=O)CNC(=O)OCc5ccccc5)C(O)C5(CC)C=CCN6CCC43C65)C2)C1 (centres unmarked) [BX-CCXJ, Z-GP-NHNH-Vincristine]
- Anti-tumor rate (%) [1]: 72.12** %
- Body weight (g) Post-dose [1]: 19.7 ± 0.9 g
- Tumor weight [1]: 0.58 ± 0.17 g
- Body weight (g) Pre-dose [1]: 19.3 ± 1.1 g
- IC50 [2]: 54.8 ± 8.41 nM
- Anti-tumor rate (%) ([3]; 1 mg/kg): 88.63** %
- Body weight (g) Post-dose ([3]; 1 mg/kg): 21.9 ± 2.1 g
- Tumor weight ([3]; 1 mg/kg): 0.29 ± 0.13 g
- Body weight (g) Pre-dose [3]: 22.2 ± 1.2 g
- IC50 [4]: 33.4 ± 2.01 nM
- IC50 [5]: 101 ± 9.02 nM
- IC50 [6]: 135 ± 5.54 nM
- IC50 [7]: 44.9 ± 3.28 nM
- LD50 (median lethal dose) [8]: 10 mg/kg
- IC50 [9]: 72.8 ± 4.59 nM
- IC50 [10]: 88.9 ± 6.84 nM
- IC50 [11]: 326 ± 13.3 nM
- IC50 [12]: 76.9 ± 4.55 nM
- Anti-tumor rate (%) [13]: 75.00** %
- Body weight (g) Post-dose [13]: 22.5 ± 1.1 g
- Tumor weight [13]: 0.42 ± 0.14 g
- Body weight (g) Pre-dose [13]: 21.2 ± 0.9 g
- IC50 [14]: 47.7 ± 2.64 nM
- Anti-tumor rate (%) [15]: 79.45** %
- Body weight (g) Post-dose [15]: 24.2 ± 1.7 g
- Tumor weight [15]: 0.59 ± 0.33 g
- Body weight (g) Pre-dose [15]: 23.8 ± 1.0 g
- IC50 [16]: 55.3 ± 1.9 nM
- IC50 [17]: 73.2 ± 3.66 nM
- IC50 [18]: 43.2 ± 3.53 nM
- IC50 [19]: 176 ± 5.51 nM
- Anti-tumor rate (%) [20]: 91.18** %
- Body weight (g) Post-dose [20]: 21.9 ± 2.9 g
- Tumor weight [20]: 0.23 ± 0.09 g
- Body weight (g) Pre-dose [20]: 19.5 ± 1.4 g
- IC50 [21]: 57.3 ± 3.36 nM
- IC50 [22]: 61.7 ± 6.14 nM
- IC50 [23]: 40.1 ± 2.09 nM
- IC50 [24]: 169 ± 5.67 nM
- IC50 [25]: 24.9 ± 1.78 nM

SMILES: CC[C@]1(O)C[C@@H]2CN(CCc3c([nH]c4ccccc34)[C@@](C(=O)OC)(c3cc4c(cc3OC)N(C)[C@H]3[C@@](O)(C(=O)OC)[C@H](OC(C)=O)[C@]5(CC)C=CCN6CC[C@]43[C@@H]65)C2)C1 [Vinblastine, reference compound]
- Anti-tumor rate (%) [1]: 52.89** %
- Body weight (g) Post-dose [1]: 16.2 ± 0.7 g
- Tumor weight [1]: 0.98 ± 0.25 g
- Body weight (g) Pre-dose [1]: 19.4 ± 1.0 g
- IC50 ([2]; Homo sapiens, A-375): 3.24 ± 0.39 nM
- Anti-tumor rate (%) ([3]; 1 mg/kg): 42.75* %
- Body weight (g) Post-dose ([3]; 1 mg/kg): 18.2 ± 1.8 g
- Body weight (g) Pre-dose [3]: 21.9 ± 0.7 g
- IC50 ([4]; Homo sapiens): 3.07 ± 0.12 nM
- IC50 at 72 h [26]: 0.34 ± 0.07 nM
- IC50 ([6]; Homo sapiens): 10.1 ± 1.12 nM
- IC50 ([7]; Homo sapiens): 0.72 ± 0.2 nM
- LD50 [27]: 4 mg/kg
- IC50 ([9]; Homo sapiens): 5.21 ± 0.84 nM
- IC50 ([11]; Homo sapiens, Bel7402/5-FU): 25.8 ± 3.01 nM
- IC50 ([12]; Homo sapiens): 0.78 ± 0.31 nM
- Anti-tumor rate (%) [13]: 49.81* %
- Body weight (g) Post-dose [13]: 17.4 ± 0.4 g
- Tumor weight [13]: 0.86 ± 0.10 g
- Body weight (g) Pre-dose [13]: 21.9 ± 0.7 g
- IC50 ([14]; Homo sapiens): 2.31 ± 0.13 nM
- Anti-tumor rate (%) [15]: 44.60* %
- Body weight (g) Post-dose [15]: 19.6 ± 1.5 g
- Tumor weight [15]: 1.59 ± 0.51 g
- Body weight (g) Pre-dose [15]: 23.1 ± 1.4 g
- IC50 ([16]; Homo sapiens): 4.34 ± 0.36 nM
- IC50 ([17]; Homo sapiens, MCF7): 3.67 ± 1.34 nM
- IC50 ([18]; Homo sapiens): 2.23 ± 0.43 nM
- IC50 at 72 h [28]: 0.76 ± 0.13 nM
- Anti-tumor rate (%) [20]: 53.26** %
- Body weight (g) Post-dose [20]: 18.3 ± 2.4 g
- Tumor weight [20]: 1.22 ± 0.35 g
- Body weight (g) Pre-dose [20]: 20.7 ± 1.4 g
- IC50 ([21]; Homo sapiens): 0.81 ± 0.35 nM
- IC50 ([22]; Homo sapiens, Neuroblastoma cell): 6.13 ± 0.51 nM
- IC50 ([23]; Homo sapiens): 1.03 ± 0.07 nM
- IC50 ([25]; Homo sapiens): 1.2 ± 0.24 nM
